Measurements as given in patent US9539259B2, “Compounds and methods of use thereof for treating neurodegenerative disorders” (THE JOHNS HOPKINS UNIVERSITY, priority 2012, dated 2017).
Where two headings read alike, the source gives them in different places.

Legend:
[1] = tested on: primary RGCs; test: Survival of immunopanned primary RGCs in culture; conditions: for RGC survival / neuroprotective activity in culture: immunopanned RGCs, increasing doses, 72 hours in culture; for neuroprotective activity, RGC survival by CellTiter-Glo luminescence: murine purified RGCs, neurotrophin-depleted media, 72 hours, sunitinib as positive control
Procedure: All animal use was in accordance with ARVO Statement for the Use of Animals, and all the experimental procedures were performed in compliance with animal protocols approved by the IACUC at Johns Hopkins University. Retinas were isolated from postnatal 0-5 day mice and dissociated with papain. Microglia was immunodepleted with anti-CD11b conjugated Dynabeads. The suspension of retinal cells were immunopanned on plates pre-conjugated with anti-Thy1.2 antibody (Serotec, Raleigh, N.C.; MCA028) and goat anti-mouse IgM (Jackson Immunoresearch) at room temperature (RT). After washing, RGCs were released from the plate by a cell lifter, counted, and seeded at a density of 10,000 per well in 96-well plates in the media composed of Neurobasal, B27, N2 supplement, L-glutamine, and penicillin/streptomycin. After a 72 hour culture at 37° C., RGCs were stained with calcein AM, ethidium homodimer, and Hoechst 33342. Images were taken from portions of each well with Cellomics Kinetscan or Cellomics ArrayScan VTI HCS Readers (Thermo Fisher), and cell survival was quantified and calculated with the algorithms in Cellomics Neuroprofiling package. As indicated, RGC viability was alternatively measured by CellTiter-Glo luminescence (Promega, Fitchburg, Wis.).
For siRNA-based screening, the siRNAs from the Sigma Mission Mouse Kinome library were complexed with NeuroMag (Oz Biosciences, Marseille, France) at a final concentration of 20 nM. RGCs were then reverse transfected on a stationary magnet and assayed for survival 72 hours later using CellTiter-Glo (Promega). […] Confirmatory siRNAs were obtained from both Dharmacon (Lafayette, Colo.) and Ambion (Carlsbad, Calif.). Adenovirus expressing wildtype or kinase-dead DLK (Robitaille et al., 2004) was added to RGCs at a multiplicity of infection of 100-1000. For small molecule-based screening, serially diluted compounds in DMSO were transferred to 1536 well assay plates by a 23 nL pintool array (Kalypsys, San Diego, Calif.), with a final concentration of 0.057% DMSO for each respective compound concentration. RGCs were cultured for 48 h, and cell viability was analyzed on a plate reader (ViewLux, Perkin Elmer, Waltham, Mass.) using the bioluminescent CellTiterGlo (Promega, Fitchburg, Wis.) assay. Concentration response curves were created using CurveFit (NIH NCATS). The screened libraries include the modified Tocriscreen (1395 compounds) collection, FDA-approved drugs (2814 compounds), LOPAC (1208 compounds) and PTL2/PTL3 (based on pteridin, pyrimidine and quinazoline scaffolds; 2319 compounds).
In order to identify novel neuroprotective agents, a high-content, high-throughput, phenotypic screen was developed using primary RGCs. RGCs were immunopanned from perinatal mice using an antibody against the RGC surface antigen Thy1 (Barres et al., 1988), arrayed into microtiter (96- to 1536-well) plates, and cell survival in the presence of various bioactive small molecules was assayed 72 hours later.

[2] = target: T1, DLK (Homo sapiens, UniProt Q12852); conditions: published kinase inhibitor profiles; cited from earlier work
T1 sequence (Q12852 1-859): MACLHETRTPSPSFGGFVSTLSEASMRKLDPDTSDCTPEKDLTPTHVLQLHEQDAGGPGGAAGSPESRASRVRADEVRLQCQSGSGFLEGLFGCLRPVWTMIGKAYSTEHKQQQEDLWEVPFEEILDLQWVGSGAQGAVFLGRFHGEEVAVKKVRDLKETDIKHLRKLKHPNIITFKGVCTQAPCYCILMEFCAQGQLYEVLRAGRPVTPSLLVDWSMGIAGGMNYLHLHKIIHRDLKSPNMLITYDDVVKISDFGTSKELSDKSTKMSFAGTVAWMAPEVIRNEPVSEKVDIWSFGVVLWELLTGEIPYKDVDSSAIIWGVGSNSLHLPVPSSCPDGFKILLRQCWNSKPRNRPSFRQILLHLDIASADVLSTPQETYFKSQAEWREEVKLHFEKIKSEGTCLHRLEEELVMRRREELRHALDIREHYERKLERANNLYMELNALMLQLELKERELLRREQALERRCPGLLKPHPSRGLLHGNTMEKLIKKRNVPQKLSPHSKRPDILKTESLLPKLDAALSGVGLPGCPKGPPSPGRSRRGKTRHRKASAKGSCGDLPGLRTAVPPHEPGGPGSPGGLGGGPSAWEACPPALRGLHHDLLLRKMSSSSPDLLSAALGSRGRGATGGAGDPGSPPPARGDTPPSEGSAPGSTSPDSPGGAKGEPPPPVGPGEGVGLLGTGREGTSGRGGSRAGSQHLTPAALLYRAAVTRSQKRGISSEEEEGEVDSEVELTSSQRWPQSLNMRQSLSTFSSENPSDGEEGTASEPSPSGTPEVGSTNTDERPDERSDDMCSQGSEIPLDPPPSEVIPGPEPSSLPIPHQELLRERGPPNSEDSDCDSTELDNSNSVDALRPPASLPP

[3] = tested on: RGCs; test: Rat optic nerve transection, RGC survival; type: in vivo, Wistar rats
[4] = tested on: optic nerve axons; test: Rat laser-induced ocular hypertension (glaucoma model), optic nerve axon counts; conditions: for reduction of optic nerve axon loss: intravitreal drug-eluting PLGA microspheres, pretreatment, at one month
Procedure: 6-week old male Wistar rats were anesthetized with ketamine/xylazine. A partial periotomy was made to expose the sclera. The injection site was approximately 1 mm posterior to the ora serrata, and the injection glass pipet was angled towards the optic disc in order to avoid lens injury. 5 μL (10 μg) of PLGA microspheres were injected with a glass pipet and Hamilton syringe.
Intraocular pressure (TOP) was unilaterally elevated by laser treatment of the trabecular meshwork as previously described (Levkovitch-Verbin, H. et al., 2002). Briefly, 6-week old Wistar male rats were anesthetized with ketamine/xylazine. On two consecutive weeks, 40-50 532 nm diode laser spots were applied to the prelimbal region (50 μm diameter, 600 mW power and 0.6 seconds duration). Under anesthesia, the IOP of laser-treated and fellow eyes was measured with TonoLab one and three days after laser treatment. Four weeks following laser treatment, rats were perfused with 4% paraformaldehyde in phosphate buffer. Optic nerves were isolated, postfixed with 1% osmium tetroxide, embedded in epoxy resin and stained with 1% toluidine blue. Images from 10 random and nonoverlapping fields were taken with 100× oil phase contrast objective. The area of entire optic nerve cross-sections were imaged with 10× magnification, and used with axon counts from the 10 field to derive axon counts per nerve. The laser treatment and acquisition of optic nerve images were performed in a masked fashion.
Sunitinib, or its vehicle control, were packaged in poly(lactic-co-glycolic acid) (PLGA)-based, slow-eluting microspheres (Edwards, 1997) and injected intravitreally into Wistar rats.

[5] = tested on: DLK signaling (phosphorylation of MKK7 and JNK); test: Western blot of DLK pathway members in RGCs; type: cell-based, mouse; conditions: RGCs 4 hours after immunopanning, concentrations that increase RGC survival
Procedure: (§1) The shaded area indicates the toxic range for tozasertib; (B) Western blot of the DLK pathway members in RGCs 4 hours after immunopanning in the presence of 0, 0.03, 0.06, 0.125, 0.25, 0.5, 1 or 2 μM tozasertib; (C) survival of cultured RGCs 72 hours after transfection with DLK (dashed) or nontargeting siRNA (solid) in the presence of increasing doses of tozasertib; and (D) survival of cultured RGCs 48 hours after transduction with DLK expressing adenovirus in the presence of increasing doses of tozasertib. Error bars show standard deviation; and
Western blots were performed according to the standard protocol. The following antibodies were from Cell Signaling Technology (Beverly, Mass.): Phospho-JNK, Thr183/Tyr185 (4671); JNK (9258); Phospho-MKK7 (4171), and MKK7 (4172). Monoclonal anti-alpha-tubulin antibody (T6074) was purchased from Sigma (St. Louis, Mo.), βIII tubulin (TUJ1) from Covance, goat polyclonal Brn3 from C-13, and rabbit anti-Cre from Novus. DLK rabbit polyclonal was provided by S. Hirai.

[6] = tested on: DLK siRNA-transfected RGCs; test: Survival of RGCs transfected with DLK or control siRNA in the presence of inhibitor; type: cell-based, mouse; conditions: 72 hours after transfection, increasing doses
Procedure: as §1
(§2) Concentration response curves were created using CurveFit (NIH NCATS).

[7] = tested on: RGCs overexpressing DLK; test: Survival of RGCs transduced with DLK-expressing adenovirus in the presence of inhibitor; type: cell-based, mouse
Procedure: as §1, §2

[8] = tested on: JNK1/2/3; conditions: published kinase inhibitor profiling; cited from earlier work
[9] = tested on: MKK4/7; conditions: published kinase inhibitor profiling; cited from earlier work

| Compound | RGC survival / neuroprotective activity in culture [1] | neuroprotective activity, RGC survival by CellTiter-Glo luminescence [1] | binding to DLK [2] | other results |
| --- | --- | --- | --- | --- |
| O=C(c1ccc(/C=C/c2n[nH]c3ccccc23)cc1)N1CCNCC1 [KW-2449] | promoted the survival of primary RGCs in culture | neuroprotective activity | reported to bind DLK |  |
| CN(C)S(=O)(=O)c1ccc2c(c1)/C(=C/c1cc3c([nH]1)CCCC3)C(=O)N2 [SU6656] | neuroprotective |  |  |  |
| COc1cc(N2CCC(N3CCN(C)CC3)CC2)ccc1Nc1ncc(Cl)c(Nc2ccccc2S(=O)(=O)C(C)C)n1 [TAE-684] |  |  | reported to bind DLK | toxicity in RGC culture [1]: limited by toxicity at nanomolar doses |
| CNC(=O)c1ccccc1Sc1ccc2c(/C=C/c3ccccn3)n[nH]c2c1 [axitinib] | promoted the survival of primary RGCs in culture | neuroprotective activity | reported to bind DLK |  |
| COc1cc(Nc2c(C#N)cnc3cc(OCCCN4CCN(C)CC4)c(OC)cc23)c(Cl)cc1Cl [bosutinib] | promoted the survival of primary RGCs in culture | neuroprotective activity | reported to bind DLK |  |
| COc1cc2nccc(Oc3ccc(NC(=O)C4(C(=O)Nc5ccc(F)cc5)CC4)cc3)c2cc1OC [cabozantinib] |  | neuroprotective activity |  |  |
| C[C@@H](Oc1cc(-c2cnn(C3CCNCC3)c2)cnc1N)c1c(Cl)ccc(F)c1Cl [crizotinib] | promoted the survival of primary RGCs in culture | neuroprotective activity | reported to bind DLK |  |
| Cc1nc(Nc2ncc(C(=O)Nc3c(C)cccc3Cl)s2)cc(N2CCN(CCO)CC2)n1 [dasatinib] |  | neuroprotective activity |  |  |
| COc1cc2c(Oc3ccc(NC(=O)C4(C(=O)Nc5ccc(F)cc5)CC4)cc3F)ccnc2cc1OCCCN1CCOCC1 [foretinib] | promoted the survival of primary RGCs in culture | neuroprotective activity | reported to bind DLK |  |
| Cc1ccc(NC(=O)c2ccc(CN3CCN(C)CC3)cc2)cc1Nc1nccc(-c2cccnc2)n1 [imatinib] | lack neuroprotective activity |  |  |  |
| C[C@]12O[C@H](C[C@]1(O)CO)n1c3ccccc3c3c4c(c5c6ccccc6n2c5c31)CNC4=O [lestautinib, lestaurtinib] | promoted the survival of primary RGCs in culture |  |  |  |
| CCOc1cc2ncc(C#N)c(Nc3ccc(OCc4ccccn4)c(Cl)c3)c2cc1NC(=O)/C=C/CN(C)C [neratinib] |  |  | reported to bind DLK | toxicity in RGC culture [1]: limited by toxicity at nanomolar doses |
| CNC(=O)c1cc(Oc2ccc(NC(=O)Nc3ccc(Cl)c(C(F)(F)F)c3)cc2)ccn1 [sorafenib] | lack neuroprotective activity |  |  |  |
| CCN(CC)CCNC(=O)c1c(C)[nH]c(/C=C2\C(=O)Nc3ccc(F)cc32)c1C [sunitinib] |  |  |  | toxicity in RGC culture ([1]; primary RGCs in culture): cytotoxicity at high concentrations; increase in surviving RGCs compared to control animals ([3]; intravitreal PLGA microspheres 7 days before transection, two weeks post-transection): 3-4 fold; reduction of optic nerve axon loss [4]: 40% |
| Cc1cc(Nc2cc(N3CCN(C)CC3)nc(Sc3ccc(NC(=O)C4CC4)cc3)n2)[nH]n1 [tozasertib] | promoted the survival of primary RGCs in culture |  | reported to bind DLK | RGC survival / neuroprotective activity in culture ([1]; listed as Tozasertib): significant neuroprotective activity; surviving RGCs ([3]; intravitreal PLGA microspheres 7 days before transection, two weeks after transection, vehicle 12.0%): 32.3%; protection of RGCs in optic nerve transection model ([3]; intravitreal slow release formulation): protected RGCs; phosphorylation of targets downstream of DLK, including MKK7 and JNK [5]: decrease in the phosphorylation of targets downstream of DLK; effect on survival of DLK siRNA-transfected RGCs [6]: left-shift of the tozasertib-survival dose-response curve; effect on toxicity / survival with adenoviral-overexpressed DLK [7]: right-shift of the tozasertib-survival dose-response curve; affinity for JNK [8]: does not have significant affinity; affinity for MKK4/7 [9]: does not have significant affinity; neuroprotection in glaucoma model ([4]; intravitreal PLGA microspheres / slow release formulation): protected RGCs; reduction of optic nerve axon loss [4]: 39% |
| Clc1ccc(Nc2nnc(Cc3ccncc3)c3ccccc23)cc1 [vatalanib] | lack neuroprotective activity |  |  |  |
